Measured values as given in ChEMBL document CHEMBL5143650, “Synthesis and biological evaluation of new series of quinazoline derivatives as EGFR/HER2 dual-target inhibitors” (Bioorg Med Chem Lett, 2022).

Experiments:
[1] = target: Epidermal growth factor receptor (Homo sapiens, UniProt P00533); test: Inhibition of recombinant human N-terminal GST-tagged EGFR (669 to 1210 residues) expressed in Sf21 insect cells using kinase substrate 22 incubated for 30 mins in presence of ATP
Calu-3 = test: Antiproliferative activity against human Calu-3 cells assessed as reduction in cell viability after 72 hrs by CCK-8 assay; type: functional
[2] = Antiproliferative activity against human NCI-H1781 cells expressing HER G776V mutant assessed as reduction in cell viability after 72 hrs by CCK-8 assay; type: functional
NCI-H358 = test: Antiproliferative activity against human NCI-H358 cells assessed as reduction in cell viability after 72 hrs by CCK-8 assay; type: functional
[3] = Inhibition of recombinant human N-terminal His-tagged EGFR (676 to 1255 residues) expressed in Sf21 insect cells using kinase substrate 22 incubated for 30 mins in presence of ATP
PC-9 = test: Antiproliferative activity against human PC-9 cells expressing EGFR E746/A750 deletion mutant assessed as reduction in cell viability after 72 hrs by CCK-8 assay; type: functional
[4] = Inhibition of recombinant human N-terminal His-tagged EGFR (676 to 1255 residues) expressed in Sf21 insect cells at 200 uM using kinase substrate 22 incubated for 30 mins in presence of ATP relative to control

Chain of Epidermal growth factor receptor (P00533 whole entry, the tested form may be a part): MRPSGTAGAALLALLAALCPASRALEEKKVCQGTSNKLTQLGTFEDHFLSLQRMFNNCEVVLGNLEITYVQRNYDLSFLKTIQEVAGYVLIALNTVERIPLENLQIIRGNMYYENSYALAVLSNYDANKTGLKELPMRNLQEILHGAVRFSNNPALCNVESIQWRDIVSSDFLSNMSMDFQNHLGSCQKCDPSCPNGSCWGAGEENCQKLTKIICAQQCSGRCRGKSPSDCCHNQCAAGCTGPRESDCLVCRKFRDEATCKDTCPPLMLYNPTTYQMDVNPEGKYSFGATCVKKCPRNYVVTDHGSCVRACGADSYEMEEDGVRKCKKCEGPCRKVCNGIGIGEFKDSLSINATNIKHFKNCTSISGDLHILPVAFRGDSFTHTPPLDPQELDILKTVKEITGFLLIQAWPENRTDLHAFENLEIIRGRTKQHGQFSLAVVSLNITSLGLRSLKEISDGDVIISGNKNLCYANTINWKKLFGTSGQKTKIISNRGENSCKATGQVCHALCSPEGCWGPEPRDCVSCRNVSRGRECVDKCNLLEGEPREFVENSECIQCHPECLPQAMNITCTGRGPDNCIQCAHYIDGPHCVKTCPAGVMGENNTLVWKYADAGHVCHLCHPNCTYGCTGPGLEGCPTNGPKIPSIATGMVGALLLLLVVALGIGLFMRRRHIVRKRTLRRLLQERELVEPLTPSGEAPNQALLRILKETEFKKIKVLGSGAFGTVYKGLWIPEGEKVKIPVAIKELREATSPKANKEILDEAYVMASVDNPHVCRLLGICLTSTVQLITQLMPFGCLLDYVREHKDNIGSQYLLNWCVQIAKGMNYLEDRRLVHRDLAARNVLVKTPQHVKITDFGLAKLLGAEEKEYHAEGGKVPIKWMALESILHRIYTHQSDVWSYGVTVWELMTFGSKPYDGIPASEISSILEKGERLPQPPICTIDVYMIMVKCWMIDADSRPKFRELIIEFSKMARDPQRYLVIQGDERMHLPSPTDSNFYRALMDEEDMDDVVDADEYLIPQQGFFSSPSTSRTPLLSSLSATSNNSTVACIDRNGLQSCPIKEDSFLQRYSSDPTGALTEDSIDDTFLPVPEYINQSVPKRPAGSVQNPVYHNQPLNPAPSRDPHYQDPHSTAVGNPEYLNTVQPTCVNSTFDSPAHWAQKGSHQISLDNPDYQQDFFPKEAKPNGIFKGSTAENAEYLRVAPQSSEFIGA

| IC50 [1] [nM] | GI50 (Calu-3) [nM] | GI50 (NCI-H358) [nM] | GI50 (PC-9) [nM] | SMILES | GI50 [2] [nM] | IC50 [3] [nM] | inhibition [4] [%] |
| --- | --- | --- | --- | --- | --- | --- | --- |
| 0.38 | 553 | 1020 | 90.8 | C=C(C(=O)N1CCN(C(=O)Oc2cc3c(Nc4ccc(Cl)c(Cl)c4F)ncnc3cc2OC)[C@H](C)C1)C(F)(F)F | > 2000 | 28.2 | 82.7 |
| 0.54 | 1340 | 619 | 92.3 | C=CC(=O)Oc1cc2c(Nc3ccc(Cl)c(Cl)c3F)ncnc2cc1OC | > 2000 | 54.4 | 71.5 |
|  |  |  |  | C=CC(=O)N1CCN(C(=O)Oc2cc3c(Nc4ccc(C#N)c(Cl)c4)ncnc3cc2OC)[C@H](C)C1 |  |  | 11.9 |
|  |  |  |  | C=CC(=O)N1CCN(C(=O)Oc2cc3c(Nc4ccc5ncccc5c4)ncnc3cc2OC)[C@H](C)C1 |  |  | 2.6 |
|  | 2.77 | 1 | 0.37 | CN(C)C/C=C/C(=O)Nc1cc2c(Nc3ccc(F)c(Cl)c3)ncnc2cc1O[C@H]1CCOC1 [AFATINIB] | 0.23 | 1.69 | 102 |
| 0.34 | 264 | 464 | 6.03 | C=CC(=O)N1CCN(C(=O)Oc2cc3c(Nc4cccc(Cl)c4F)ncnc3cc2OC)[C@H](C)C1 | > 2000 | 152 | 53.4 |
|  |  |  |  | C=C(C)C(=O)N1CCN(C(=O)Oc2cc3c(Nc4ccc(Cl)c(Cl)c4F)ncnc3cc2OC)[C@H](C)C1 |  |  | 43.6 |
|  |  |  |  | C=CC(=O)N1CCN(C(=O)Oc2cc3c(Nc4cc(C(C)(C)C)no4)ncnc3cc2OC)[C@H](C)C1 |  |  | 14.6 |
|  |  |  |  | C=CC(=O)N1CCN(C(=O)Oc2cc3c(Nc4ccc(Cl)c(Cl)c4F)ncnc3cc2OC)[C@H](C)C1 |  |  | 48.9 |
|  |  |  |  | C=C(F)C(=O)N1CCN(C(=O)Oc2cc3c(Nc4ccc(Cl)c(Cl)c4F)ncnc3cc2OC)[C@H](C)C1 |  |  | 41.1 |
|  |  |  |  | C=C(F)C(=O)N1C[C@@H]2C[C@H]1CN2C(=O)Oc1cc2c(Nc3ccc(Cl)c(Cl)c3F)ncnc2cc1OC |  |  | 47.9 |
|  |  |  |  | C=CC(=O)N1CCN(C(=O)Oc2cc3c(Nc4ccc(F)c(C#N)c4)ncnc3cc2OC)[C@H](C)C1 |  |  | 13.9 |
|  |  |  |  | C=C(F)C(=O)N1CCN(C(=O)Oc2cc3c(Nc4cnc5ccccc5c4)ncnc3cc2OC)[C@H](C)C1 |  |  | 11.5 |
|  |  |  |  | C=CC(=O)N1CCN(C(=O)Oc2cc3c(Nc4ccc5ccccc5c4)ncnc3cc2OC)[C@H](C)C1 |  |  | 30.8 |
| 0.3 | 23.1 | 23.3 | 1.95 | C=CC(=O)N1C[C@@H]2C[C@H]1CN2C(=O)Oc1cc2c(Nc3ccc(Cl)c(Cl)c3F)ncnc2cc1OC | 41.6 | 6.07 | 95.8 |
|  |  |  |  | C=CC(=O)N1CCN(C(=O)Oc2cc3c(Nc4ccc(C#N)cc4)ncnc3cc2OC)[C@H](C)C1 |  |  | 4.4 |
|  |  |  |  | C=CC(=O)N1CCN(C(=O)Oc2cc3c(Nc4cnc5ccccc5c4)ncnc3cc2OC)[C@H](C)C1 |  |  | 14.9 |
|  | 10.1 | 8.67 | 0.9 | C=CC(=O)N1CCC(Oc2cc3c(Nc4ccc(Cl)c(Cl)c4F)ncnc3cc2OC)CC1 [POZIOTINIB] | 2.27 | 3.88 | 97.1 |
|  |  |  |  | C=CC(=O)N1CCN(C(=O)Oc2cc3c(Nc4ccc5scnc5c4)ncnc3cc2OC)[C@H](C)C1 |  |  | 5.8 |
|  |  |  |  | C=CC(=O)N1CCN(C(=O)Oc2cc3c(Nc4ccc(C#N)c(F)c4)ncnc3cc2OC)[C@H](C)C1 |  |  | 2.3 |
| 0.32 | 718 | 671 | 299 | C#CC(=O)N1CCN(C(=O)Oc2cc3c(Nc4ccc(Cl)c(Cl)c4F)ncnc3cc2OC)[C@H](C)C1 | > 2000 | 22.2 | 94 |
